Reference: US20260034119A1, “5-METHOXY-N,N-[…][…], THEIR […], AND METHODS FOR TREATMENT OF NEUROLOGICAL, […], AND SUBSTANCE USE DISORDERS” (priority 2023, published 2026)
“Also recorded” adds a separate entry of the source. Read-outs that look alike come from different tables or passages of the source.

Columns and labels:
[1] = biological target: 5-HT2B (Homo sapiens, UniProt P41595); experiment: IP1 functional assay 5-HT2B; type: cell-based; details: for Emax: read-out: 5-HT2B (IP1) Emax (%5-HT)
5-HT2B, sequence (P41595 whole entry, species assumed): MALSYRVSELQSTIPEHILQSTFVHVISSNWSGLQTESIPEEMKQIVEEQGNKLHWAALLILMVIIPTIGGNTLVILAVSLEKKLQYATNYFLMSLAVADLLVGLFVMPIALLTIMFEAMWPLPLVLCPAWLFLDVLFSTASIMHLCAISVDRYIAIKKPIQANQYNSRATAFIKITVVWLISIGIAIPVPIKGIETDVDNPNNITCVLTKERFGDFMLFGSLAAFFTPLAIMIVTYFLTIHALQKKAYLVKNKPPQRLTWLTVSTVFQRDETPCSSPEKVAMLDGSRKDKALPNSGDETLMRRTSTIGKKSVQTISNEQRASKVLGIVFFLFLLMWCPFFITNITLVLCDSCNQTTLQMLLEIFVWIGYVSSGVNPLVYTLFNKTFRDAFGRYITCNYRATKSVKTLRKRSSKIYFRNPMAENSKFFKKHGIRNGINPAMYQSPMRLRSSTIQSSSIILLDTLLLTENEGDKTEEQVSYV

[2] = test system: C57BL/6J mice; experiment: Head twitch response (HTR); type: in vivo, mouse; details: s.c., presence or absence of 5-HT1A antagonist WAY-100635
Procedure: The head-twitch response evaluation was performed by trained observers who were blinded to both drug and dose. Mice were habituated to the testing room 30 min. The body weight of each mouse was recorded. The HTR was defined as a rapid rotational movement of the head around the longitudinal axis of the animals' body. Mice were administered with vehicle or WAY100,635 (1 mg/kg or 2 mg/kg, sc). Fifteen minutes after the pretreatment injection mice were administered either 4F, 5-MeO-MET (0.1, 0.3, 1 or 3 mg/kg, sc) or 5-MeO-MET (0.3, 1, 3, and 10 mg/kg, sc) and placed in a novel observation cage. An overhead camera (GoPro HERO9 at a 120 Hz, San Mateo, CA, US) recorded their movements. Observers scored HTR from recorded footage for the first 10-min period.

[3] = test system: mice; experiment: Open field locomotor activity; type: in vivo, mouse; details: mice, s.c.
[4] = biological target: T1, 5-HT2A (Homo sapiens, UniProt P28223); experiment: cell-based; set-up: expressed in transfected cells; host or cells: HEK293-T; details: for Emax: read-out: 5-HT2A (IP1) Emax (%5-HT)
T1 sequence (P28223 whole entry): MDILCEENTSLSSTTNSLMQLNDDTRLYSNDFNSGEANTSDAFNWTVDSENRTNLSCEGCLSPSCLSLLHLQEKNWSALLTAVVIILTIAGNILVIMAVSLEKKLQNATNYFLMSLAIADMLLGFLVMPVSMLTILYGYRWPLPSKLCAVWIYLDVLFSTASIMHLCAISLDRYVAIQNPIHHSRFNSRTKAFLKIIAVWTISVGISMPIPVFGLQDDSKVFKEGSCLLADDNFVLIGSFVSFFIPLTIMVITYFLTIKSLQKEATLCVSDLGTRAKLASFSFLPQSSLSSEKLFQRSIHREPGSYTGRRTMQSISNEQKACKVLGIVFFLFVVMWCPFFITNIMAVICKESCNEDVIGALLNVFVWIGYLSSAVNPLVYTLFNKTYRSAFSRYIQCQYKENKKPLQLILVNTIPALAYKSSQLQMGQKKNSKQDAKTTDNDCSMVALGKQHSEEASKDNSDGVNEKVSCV

[5] = biological target: T2, 5-HT1A (Homo sapiens, UniProt P08908); experiment: BRET signaling assay: 5-HT1A-mediated activation of heterotrimeric Gi1 (TRUPATH, HEK293-T); details: Gi BRET EC50
[6] = test system: C57BL6J mice; experiment: Catalepsy bar test (tetrabenazine / haloperidol induced); type: in vivo, mouse; details: 10.0 & 20.0 mg/kg s.c., 60 min post inj., vs vehicle
Text: Catalepsy, characterized by muscular rigidity and fixity of posture irrespective of external stimuli (Mann et al. 2015, Karuppagounder et al 2012) is a recognized model for Parkinson's disease (PD) in rodents, induced by dopamine (DA) antagonists such as haloperidol, and DA depleting agents like tetrabenazine (TBZ) (Jastrzębska-Więsek et al. 2022, Bhangale et al. 2016). TBZ, a reversible inhibitor of the type-2 vesicular monoamine transporter, primarily affects dopamine neurons by blocking vesicular storage and depleting monoamines (Jastrzębska-Więsek et al. 2022). In contrast, Haloperidol, a nonselective D2 dopamine antagonist, […] (Bhangale et al. 2016). C57BL6J mice are administered TBZ/Haloperidol at t=0 min and 4-F, 5-MeO-PyrT at t=30 min via subcutaneous injection, with Haloperidol (0.5 mg/kg) given intraperitoneal injection. Mice are tested individually at t=60 min, and catalepsy is defined by the absence of movement for 30-60 seconds with a cutoff time set to 60 second. […] The automated Maze Engineers Catalepsy Bar test, featuring sensors to detect forelimb removal from the bar, facilitates automatic recording of forelimb movement duration from the bar to the ground.

[7] = test system: C57BL/6J mice; experiment: Sucrose preference test after chronic social defeat stress; type: in vivo, mouse; details: stressed mice, relative to vehicle-treated animals
Text: The sucrose preference test is a volitional two-bottle choice procedure in which mice are given the choice between consuming water and a 1% sucrose solution. This paradigm has been used extensively to assess the effects of stress-induced anhedonia. On day 10 of CSDS mice were individually housed and habituated to two bottles containing just water. Twenty-four hours later, following the SI test, one bottle was replaced with a 1% sucrose solution (w/v) made with water from the animal vivarium. Mice had ad libitum overnight access to both bottles and preference for sucrose over water was calculated as follows: [sucrose/(sucrose+water)*100]. Data were averaged from two independent experiments. A total of 27 mice were administered vehicle (9 control, 18 stress), 27 received 4-F, 5-MeO-PyrT (9 control, 18 stress), 15 received WAY-100635 (5 control, 10 stress), and 15 received 4-F, 5-MeO-PyrT+WAY-100635 (5 control, 10 stress). More animals were used for the stressed groups due to the inherent resilience of mice to social defeat stress (Krishnan et al. 2007). Analysis of different treatment conditions of control and stressed animals was done in GraphPad Prism using two-way ANOVA.

[8] = biological target: T1, 5-HT2A; experiment: cell-based
[9] = biological target: T2, 5-HT1A; experiment: cell-based
[10] = Microsomal stability, human liver microsomes; type: in vitro ADME; details: versus the DMT analogs
Procedure: Microsomal incubations were carried out in 96-well plates in 5 aliquots of 30 μL each (one for each time point). Liver microsomal incubation medium comprised of phosphate buffer (100 mM, pH 7.4), MgCl2 (3.3 mM), NADPH (3 mM), glucose-6-phosphate (5.3 mM), glucose-6 phosphate dehydrogenase (0.67 units/ml) with 0.42 mg of liver microsomal protein per ml. In the control reactions the NADPH-cofactor system was substituted with phosphate buffer. Test compounds (2 μM, final solvent concentration 1.6%) were incubated with microsomes at 37° C., shaking at 100 rpm. Each reaction was performed in duplicates. Five time points over 90 minutes were analyzed. The reactions were stopped by adding 5 volumes of methanol containing internal standard to incubation aliquots, followed by protein sedimentation by centrifuging at 5500 rpm for 4 minutes. Supernatants were analyzed using the HPLC system coupled with tandem mass spectrometer. The elimination constant (kel), half-life (t1/2) and intrinsic clearance (Clint) were determined in plot of […] versus time, using linear regression analysis.

[11] = biological target: T3, human 5-HT1A (Homo sapiens, UniProt P08908); experiment: cell-based
T3 sequence (P08908 1-422): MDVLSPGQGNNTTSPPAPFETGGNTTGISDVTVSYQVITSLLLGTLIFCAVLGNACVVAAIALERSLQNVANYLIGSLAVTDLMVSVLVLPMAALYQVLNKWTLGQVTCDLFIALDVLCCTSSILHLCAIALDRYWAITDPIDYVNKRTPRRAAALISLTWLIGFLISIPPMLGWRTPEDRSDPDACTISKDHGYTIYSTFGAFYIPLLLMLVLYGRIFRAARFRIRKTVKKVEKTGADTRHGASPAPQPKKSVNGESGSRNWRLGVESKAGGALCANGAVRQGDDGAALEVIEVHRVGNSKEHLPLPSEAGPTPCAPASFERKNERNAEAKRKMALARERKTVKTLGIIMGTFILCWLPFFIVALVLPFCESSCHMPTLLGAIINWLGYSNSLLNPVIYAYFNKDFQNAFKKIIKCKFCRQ

[12] = biological target: T4, MAO-A (Homo sapiens, UniProt P21397); experiment: MAO-A activity (metabolism of compound); details: versus the DMT analogs
T4 sequence (P21397 1-527): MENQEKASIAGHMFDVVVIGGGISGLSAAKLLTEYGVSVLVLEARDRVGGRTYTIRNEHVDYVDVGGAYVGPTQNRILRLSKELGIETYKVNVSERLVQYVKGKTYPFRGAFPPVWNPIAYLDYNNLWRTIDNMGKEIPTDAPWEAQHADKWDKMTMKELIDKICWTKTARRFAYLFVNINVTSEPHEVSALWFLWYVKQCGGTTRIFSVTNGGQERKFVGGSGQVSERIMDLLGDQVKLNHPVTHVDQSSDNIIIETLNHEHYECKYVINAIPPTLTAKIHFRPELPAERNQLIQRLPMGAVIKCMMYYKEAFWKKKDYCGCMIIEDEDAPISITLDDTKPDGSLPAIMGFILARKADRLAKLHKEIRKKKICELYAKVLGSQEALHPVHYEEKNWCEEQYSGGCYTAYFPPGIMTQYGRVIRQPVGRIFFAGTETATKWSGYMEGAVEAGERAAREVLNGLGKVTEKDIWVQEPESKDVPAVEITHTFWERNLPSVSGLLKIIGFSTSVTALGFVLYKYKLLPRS

CCN(C)CCc1c[nH]c2ccc(OC)cc12 [Compound 5-MeO-MET]
EC50 ([1]; Table 3, read-out: 5-HT2B (IP1) EC50): 130 nM | Emax ([1]; Table 3): 62% | head-twitch response (HTR), measure of 5-HT2A-mediated hallucinogenic activity [2]: robust HTR in the presence of WAY100; also recorded: robust dose-dependent activity | locomotor suppression in the open field (OF) test [3]: dose-dependent locomotor suppression | EC50 [4]: 96 nM | Emax [4]: 107% | EC50 [5]: 25.9 nM

COc1cc2c(cc1OC)C1CC(=O)C(CC(C)C)CN1CC2 (stereo not drawn) [Tetrabenazine]
induction of catalepsy [6]: significantly induces catalepsy

COc1ccccc1N1CCN(CCN(C(=O)C2CCCCC2)c2ccccn2)CC1 [WAY-100635, reference compound]
sucrose preference [7]: not statistically significant

CCCN(CCC)CCc1c[nH]c2ccc(OC)c(F)c12 [Compound 30, N-(2-(4-fluoro-5-methoxy-1H-indol-3-yl)ethyl)-N-propylpropan-1-amine]
EC50 [8]: 142 nM | EC50 [9]: 3.7 nM | EC50 [1]: 99 nM | Emax ([1]; Table 3): 86% | microsomal stability in human microsomes [10]: greater stability in human microsomes versus the DMT analogs | EC50 [4]: 180 nM | Emax [4]: 100% | EC50 [11]: 1.31 nM | MAO A metabolism [12]: markedly slower MAO A metabolism versus the DMT analogs
